Measurements: US9863955B2, “AMPK activator screening method, and AMPK activator” (KYORIN PHARMACEUTICAL CO., LTD., priority 2012, dated 2018)

How the values were obtained:
[1] = target: T1, interaction between PHB1 and AMPK (Homo sapiens, UniProt P35232); assay: GST pull down assay of GST-PHB1 protein and AMPK in the presence of compound A; type: binding; details: compound A final concentration 10 μM, 3 hours at 4° C., Western blotting (FIG. 7)
T1 construct: purchased Abnova Corp. (GST-PHB1); Calbiochem (AMPK)
T1 sequence (P35232 1-272): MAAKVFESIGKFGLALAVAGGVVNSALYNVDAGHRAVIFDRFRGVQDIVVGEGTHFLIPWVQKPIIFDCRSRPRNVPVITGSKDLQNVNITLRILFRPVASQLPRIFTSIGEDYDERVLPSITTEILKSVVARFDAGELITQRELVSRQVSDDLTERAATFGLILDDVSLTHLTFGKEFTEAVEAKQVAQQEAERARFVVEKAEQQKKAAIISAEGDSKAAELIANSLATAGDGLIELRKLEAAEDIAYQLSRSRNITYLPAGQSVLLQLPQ
Protocol: Specifically, Glutathione Sepharose 4 Fast Flow carrier (GE Healthcare) was bound to each of commercially available GST protein, a GST fusion PHB1 protein (hereinafter also referred to as GST-PHB1 protein) (Abnova Corp.) and a GST fusion PHB2 protein (hereinafter also referred to as the GST-PHB2 protein) (Abnova Corp.) to obtain GST carrier-protein complexes. Each of the GST carrier-protein complexes and AMPK (Calbiochem) were incubated in a NET buffer (0.5% NP-40, 50 mM Tris-HCl pH 7.5, 50 mM sodium chloride, and 5 mM EDTA) for 3 hours at 4° C. for binding. After washing the resultant with a NET buffer, a sample buffer (50 mM Tris-HCl pH 6.8, 2% SDS, 10% glycerin, 1% β-mercaptoethanol, 12.5 mM EDTA, and 0.02% bromophenol blue) was added thereto to prepare a sample. The thus obtained sample was separated by SDS-PAGE, the resultant was transferred to a PVDF membrane and subjected to Western blotting using anti-AMPKα and anti-GST antibodies, so as to detect whether or not AMPK was bound to GST protein, GST-PHB1 protein or GST-PHB2 protein bound to Gluthathione Sepharose to be pulled down.
GST-PHB1 protein (500 ng) was bound to Glutathione Sepharose 4 Fast Flow (10 μL) to obtain a GST carrier-protein complex. […]

AMPKα = assay: Western blotting of HepG2 cells cultured with compound A: AMPKα; type: cell-based, human; details: various final concentrations, 3 hours culture (FIG. 8)
Protocol: (§1) Compound A was added to a HepG2 cell culture system to various final concentrations, and after culturing the resultant for 3 hours, the cells were lysed in a lysis buffer to obtain a cell extract. The thus obtained cell extract was used for performing SDS-PAGE so as to separate proteins contained in the extract in accordance with their sizes, and the resultant was transferred to a PVDF membrane to detect PHB1, PHB2, AMPKα and phosphorylated AMPKα by Western blotting.

ACC = assay: Western blotting of HepG2 cells cultured with compound A: ACC; type: cell-based, human; details: various final concentrations, 3 hours culture (FIG. 8)
PHB1 = assay: Western blotting of HepG2 cells cultured with compound A: PHB1; type: cell-based, human; details: various final concentrations, 3 hours culture (FIG. 8)
Protocol: as §1

PHB2 = assay: Western blotting of HepG2 cells cultured with compound A: PHB2; type: cell-based, human; details: various final concentrations, 3 hours culture (FIG. 8)
Protocol: as §1

human PHB1 = assay: Real-time PCR of HepG2 cells transfected with siRNA: PHB1; type: cell-based; details: 72 hours after transfection (FIG. 1)
Description: (§2) Human hepatoma cell line HepG2 cells were transfected with siRNA (Stealth RNAi, Invitrogen) against human PHB1 or human PHB2 using Lipofectamine RNAiMAX (Invitrogen).
(§3) Seventy-two hours after the transfection, RNA was extracted from siRNA transfected cells using RNeasy Mini Kit (Qiagen). The thus obtained RNA was reverse transcribed into a cDNA using High Capacity cDNA Reverse Transcription Kit (Applied Biosystems). The resultant cDNA was subjected to real-time PCR by TaqMan Gene Expression Assays (Applied Biosystems, PHB1: Hs_00855044_gl, PHB2: Hs_00200720_ml) using 7500 Fast Real-Time PCR system (Applied Biosystems), and thus, the influence of the knockdown of PHB1 or PHB2 on the amount of gene expression was detected.

human PHB2 = assay: Real-time PCR of HepG2 cells transfected with siRNA: PHB2; type: cell-based; details: 72 hours after transfection (FIG. 1)
Description: as §2, §3

**Q.** For `CCCCN1C(=O)CN(Cc2ccc(OC)c(C(=O)NCc3ccc(Oc4ccc(F)cc4)cc3)c2)C1=O` [compound A, 5(2,4-dioxo-3-butylimidazolidin-1-yl)methyl-2-methoxy-N-[4-(4-fluorophenoxy)phenylmethyl]benzamide], which “AMPKα pulled down by GST-PHB1 protein” value [1] is on record?
**A.** Its value is “remarkably decreased”.

**Q.** And the “amount of AMPKα” value (AMPKα)?
**A.** Its value is “does not remarkably affect”.

**Q.** What about the “level of phosphorylated AMPKα” value (AMPKα) of the same molecule?
**A.** Its value is “increased by compound A in a concentration-dependent manner”.

**Q.** What about the “amount of ACC” value (ACC) of the same molecule?
**A.** The value was “does not remarkably affect”.

**Q.** What about the “level of phosphorylated ACC” value (ACC) of the same molecule?
**A.** Its value is “increased by compound A in a concentration-dependent manner”.

**Q.** And the “amount of PHB1” value (PHB1)?
**A.** Its value is “does not remarkably affect”.

**Q.** And the “amount of PHB2” value (PHB2)?
**A.** Its value is “does not remarkably affect”.

**Q.** For “siPHB1: siRNA (Stealth RNAi, Invitrogen) against human PHB1, SEQ ID NO: 1 and 2 (chain 1 UUGGCAAUCAGCUCAGCUGCCUUGG; chain 2 CCAAGGCAGCUGAGCUGAUUGCCAA; Stealth RNAi (Invitrogen), modifications not given here)”, which “amount of transcription of PHB1” value (human PHB1) is on record?
**A.** The value was “specifically depressed”.

**Q.** For “siPHB2: siRNA (Stealth RNAi, Invitrogen) against human PHB2, SEQ ID NO: 3 and 4 (chain 1 UACGAUUCUGUGAUGUGGCGAUCGU; chain 2 ACGAUCGCCACAUCACAGAAUCGUA; Stealth RNAi (Invitrogen), modifications not given here)”, which “amount of transcription of PHB2” value (human PHB2) is on record?
**A.** The value was “specifically depressed”.
